The test system of data set [1] is airway contraction by LTD4. Description: Inhibitory action on contraction of respiratory tract by LTD4 (Konzett and Roessler method). The format is in vivo, guinea pig. To be noted: for inhibition in vivo at 30 mg/kg: Cavia porcellus, po, 1 h, read-out: Exp. 4-2 % at which the test compound suppressed airway contraction by LTD4. How it is done:
(§1) A respiratory tract contraction (histamine, LTD4) was intravenously administered to anesthetized guinea pig, and a change in airway resistance was measured in accordance with Konzett end Roessler method. The test drug was orally administered 1 hour before the administration of the contraction inducing agent.
(§2) The experiments 1-4 described above were conducted using the compounds of Examples 1, 2, 6, 8, 12, 14, 19, 23, 27, 30, 34, and 35 to be mentioned below, compound (V), and Terfenadine, the results of which are shown in Table 1.
(§3) **% at which the test compound (30 mg/kg, p.o.) suppressed airway
(§4) contraction by histamine (41) or LTD4 (42)

Data set [2] deals with contraction of lung parenchymal specimen by histamine. Nature of the data set: Antihistaminic action: contraction of lung parenchymal specimen caused by histamine. The class given is cell-based. To be noted: test compound 10^-5 M, histamine 10^-5 M, guinea pig lung parenchyma; for inhibition at 10 µM: Cavia porcellus, read-out: Exp. 3 % at which the test compound suppressed contraction by histamine. How it is done: A lung parenchymal specimen extracted from guinea pig was hung in a nutritive solution at 37° C., and applied a load of 0.5 g. Contraction caused by histamine under aeration of 95% O2 +5% CO2 was recorded isometrically. The inhibition by the test drug with respect to the dose-reaction curve by histamine at 10^-7 -10^-4 was examined.
as §2
*% at which the test compound (10^-5 M) suppressed contraction by […]

The subject of the next data set is synthesis of TXA2. Nature of the data set: Inhibitory action on synthesis of TXA2 (PGH2 substrate, aspirin-treated platelets, TXB2 by RIA). The note with it: Platelet, read-out: Exp. 1 (IC50) inhibitory action on synthesis of TXA2. The format is cell-based. The method, then:
Prostaglandin H2 (PGH2) was added as a substrate to an aspirin-treated platelet floating solution, and the mixture was incubated at 37° C. The resultant TXA2 was converted to TXB2, and measured by RIA method. The test drug was added 10 minutes before the addition of PGH2.
as §2

For data set [3], the system named is blood platelet aggregation. Nature of the data set: Inhibitory action on blood platelet aggregation (arachidonic acid aggregation in rich platelet plasma, nephelometry). The class given is cell-based. To be noted: arachidonic acid 0.1 mM, test drug added 1 minute before, read-out: Exp. 2 (IC50) inhibitory action on blood platelet aggregation. The method, then:
Arachidonic acid aggregation in rich platelet plasma was determined by nephelometry. The test drug was added 1 minute before the addition of the arachidonic acid (0.1 mM).
as §2

Data set [4] relates to airway contraction by histamine. Description: Inhibitory action on contraction of respiratory tract by histamine (Konzett and Roessler method). The note with it: for inhibition in vivo at 30 mg/kg: Cavia porcellus, po, 1 h, read-out: Exp. 4-1 % at which the test compound suppressed airway contraction by histamine. The class given is in vivo, guinea pig. The method, then:
as §1, §2, §3, §4

For the next data set, the system named is male ddy mice. Description: Acute toxicity, oral, male ddy mice. The class given is in vivo. To be noted: 1000 mg/20 ml/kg orally, 5 male ddy mice. The method, then: The compound of Example 6 was suspended in a 5% gum arabic solution and orally administered to 5 male ddy mice at 1000 mg/20 ml /kg.
The mark [5] stands for this setting: 30 mg/kg, p.o., 1 hour before LTD4 i.v., anesthetized guinea pig.
Setting [6] is: test drug added 10 minutes before PGH2, 37° C.
Where [7] appears, read: 30 mg/kg, p.o., 1 hour before histamine i.v., anesthetized guinea pig.

Data on 14 compounds can be found in patent US5538973A, “Imidazole derivative, pharmaceutical use thereof, and intermediate therefor” (Kyoto Pharmaceutical Industries, Ltd., priority 1992, dated 1996).

As a reminder, the pIC50 is the IC50 on a negative log10 scale, so that one unit is a factor of ten.

Molecules are shown by their SMILES. pIC50: −log10 of the molar value. Where a name gives a salt, the structure may show the parent alone. Read-outs that look alike come from different tables or passages of the source.

Consider `O=C(O)C=Cc1ccc(Cn2ccnc2)cc1` [Compound (V), reference compound], for which the values for the inhibition in vivo at 30 mg/kg in data set [1] (setting [5]) and in data set [4] (setting [7]) were 57% and 4%, respectively. The inhibition at 10 µM in data set [2] was 8%. Besides, the pIC50 in the data set on synthesis of TXA2 (setting [6]) is 5.82; in data set [3] (Platelet), 4.27.

Turning to `O=C(COCCN1CCN(C(c2ccccc2)c2ccccc2)CC1)N1CCc2cc(-n3ccnc3)ccc21` [Example 1, 1-[2-(4-benzhydryl-1-piperazinyl)ethoxyacetyl]-5-(1H-imidazol-1-yl)indoline oxalate], the inhibition in vivo at 30 mg/kg in data set [1] (setting [5]) amounted to 73%; in data set [4] (setting [7]), 100%. In addition, the inhibition at 10 µM in data set [2] is 95%. Besides, the pIC50 in data set [3] (Platelet) is 5.36.

Take `O=C(N1CCN(CCOC(c2ccccc2)c2ccccc2)CC1)N1CCc2cc(-n3ccnc3)ccc21` [Example 2, 1-{4-[(2-benzhydryloxyethyl)-1-piperazinyl]-carbonyl}-5-(1H-imidazol-1-yl)indoline oxalate]: the values for the inhibition in vivo at 30 mg/kg in data set [1] and in data set [4] were 83% and 100%, respectively. Besides, the inhibition at 10 µM in data set [2] came out at 66%. Also, the pIC50 in the data set on synthesis of TXA2 is 5.82; in data set [3] (Platelet), 5.33.

As to `Cl.Cl.Cl.O=C(O)c1cc2cc(Cn3ccnc3)ccc2n1CCCN1CCN(C(c2ccccc2)c2ccccc2)CC1` [Example 6, 1-[3-(4-benzhydryl-1-piperazinyl)propyl]-5-(1H-imidazol-1-ylmethyl)-1H-indole-2-carboxylic acid trihydrochloride], the “Exp. 4-2 % at which the test compound suppressed airway contraction by LTD4” value in data set [1] (setting [5]) turned out to be 75%. The inhibition at 10 µM in data set [2] amounted to 100%. In addition, the pIC50 in the data set with synthesis of TXA2 (setting [6]) was 6.40; in data set [3] (listed as Ex. 6, trihydrochloride), 5.09. In addition, the death result in the data set on male ddy mice is “No death was observed”. The inhibition in vivo at 30 mg/kg in data set [4] (setting [7]) stood at 100%.

On to `O=C(CN1CCN(CCOC(c2ccccc2)c2ccccc2)CC1)N1CCc2cc(-n3ccnc3)ccc21` [Example 8], for which the inhibition in vivo at 30 mg/kg in data set [1] was 87%; in data set [4], 100%. Besides, the inhibition at 10 µM in data set [2] amounted to 55%. Further, the pIC50 in data set [3] (Platelet) was 5.68.

Turning to `O=C(N1CCN(CCOC(c2ccccc2)c2ccccc2)CC1)N1CCc2cc(Cn3ccnc3)ccc21` [Example 12], the inhibition in vivo at 30 mg/kg was 64% in data set [1] and 100% in data set [4]. Besides, the inhibition at 10 µM in data set [2] came to 61%. Besides, the pIC50 in data set [3] (Platelet) was 4.74.

As for `O=C(CN1CCN(CCOC(c2ccccc2)c2ccccc2)CC1)N1CCc2cc(Cn3ccnc3)ccc21` [Example 14], the inhibition in vivo at 30 mg/kg turned out to be 42% in data set [1] and 100% in data set [4]. The inhibition at 10 µM in data set [2] worked out at 45%. In addition, in data set [3] (Platelet), the pIC50 is 4.24.

As to `c1ccc(C(c2ccccc2)N2CCN(CCCn3ccc4cc(-n5ccnc5)ccc43)CC2)cc1` [Example 19], the inhibition in vivo at 30 mg/kg came to 40% in data set [1] (setting [5]) and 94% in data set [4] (setting [7]). The inhibition at 10 µM in data set [2] was 45%. The pIC50 in data set [3] (Platelet) was 4.68.

As for `O=C(O)c1cc2cc(Cn3ccnc3)ccc2n1CCCN1CCN(C(c2ccccc2)c2ccccc2)CC1` [Example 23], the “Exp. 4-2 % at which the test compound suppressed airway contraction by LTD4” value in data set [1] (setting [5]) worked out at 53%. For the same compound, in data set [2] (10 µM), the “Exp. 3 % at which the test compound suppressed contraction by histamine” value is on record as 94%. Also, in data set [3] (listed as Ex. 23), the pIC50 was 4.47. In data set [4] (setting [7]), the “Exp. 4-1 % at which the test compound suppressed airway contraction by histamine” value was found to be 94%.

As to `c1ccc(CC2CCN(CCn3ccc4cc(-n5ccnc5)ccc43)CC2)cc1` [Example 27], the inhibition in vivo at 30 mg/kg in data set [1] (setting [5]) was 68%; in data set [4] (setting [7]), 100%. Moreover, in data set [2], the inhibition at 10 µM came to 58%. The pIC50 in data set [3] (Platelet) is under 4.00.

Take `O=C(O)c1ccc2c(Cn3ccnc3)cn(CCCN3CCC(Cc4ccccc4)CC3)c2c1` [Example 30]: the inhibition in vivo at 30 mg/kg is 26% in data set [1] (setting [5]) and 100% in data set [4] (setting [7]). For the same compound, the inhibition at 10 µM in data set [2] stood at 100%. Besides, in data set [3] (Platelet), the pIC50 was 5.00.

Take `O=C(O)c1ccc2c(c1)c(CCn1ccnc1)cn2CCCN1CCC(Cc2ccccc2)CC1` [Example 34]: the inhibition in vivo at 30 mg/kg in data set [1] (setting [5]) came to 31%; in data set [4] (setting [7]), 90%. Moreover, the inhibition at 10 µM in data set [2] worked out at 58%. In addition, in data set [3] (Platelet), the pIC50 was under 4.00.

For `O=C(O)c1ccc2c(c1)c(CCn1ccnc1)cn2CCCN1CCN(CCOC(c2ccccc2)c2ccccc2)CC1` [Example 35], the values for the inhibition in vivo at 30 mg/kg in data set [1] and in data set [4] were 18% and 100%, respectively. In addition, the inhibition at 10 µM in data set [2] was determined as 100%. Also, the pIC50 in data set [3] (Platelet) is 4.15.

For the compound `CC(C)(C)c1ccc(C(O)CCCN2CCC(C(O)(c3ccccc3)c3ccccc3)CC2)cc1` (centres unmarked) [Terfenadine, reference compound], the results for the inhibition in vivo at 30 mg/kg in data set [1] (setting [5]) and in data set [4] (setting [7]) were 27% and 100%, respectively. In addition, the inhibition at 10 µM in data set [2] turned out to be 48%.
